Data: paper PMC4627230, “Identification of TAX2 peptide as a new unpredicted anti-cancer agent” (Oncotarget, 2015)

What was measured:
[1] = test system: HUVECs; assay: Endothelial tube formation assay on matrigel; type: cell-based, human
Protocol: Figure 2 TAX2 peptide impairs endothelial cell migration and inhibits angiogenesis in vitro and ex vivo A. HUVECs were treated with TAX2 (100 μM) or scrambled peptide (Ctrl, 100 μM). CD47 was immunoprecipitated from total protein lysates using anti-CD47 (clone B6H12) and non-specific IgGs were used as a negative control. Immunocomplexes were then submitted to SDS-PAGE and immunoblotted (IB) using specific TSP-1 and CD47 antibodies. Histogram represents the quantification of co-immunoprecipitated TSP-1 relative to immunoprecipitated CD47. Results are expressed as percentage compared to control (n = 3 separate experiments, t test). B. HUVECs (1 × 10^5 per well) were grown at confluence and then cell proliferation was inhibited by incubating with 10 μg/mL mitomycin C for 2 h. Migration assays were performed for 9 h with or without TAX2 peptide (100 μM), as described in Materials and Methods. Photographs (100×) were taken every 3 h. Graph represents the quantification of the wounded area. Each value is the mean of 3 independent experiments, each performed in quadruplicate. C. HUVECs (5 × 10^4 per well) were plated into the upper compartment of a Transwell membrane and incubated for 12 h in EGM-2 in the presence of 100 μM TAX2 peptide. Hoechst-stained migrating cells attached on outside surface of the top chamber were photographed (20× objective) and counted. Results are expressed as percentage of migrated cells as compared to control. Each value represents the mean of 5 independent experiments, each performed in triplicate.*p < 0.05, compared to control; t test. D. HUVECs (5 × 10^4) were cultured on matrigel layers in control conditions (Ctrl) or in the presence of TAX2. After 8 h incubation, HUVEC tube-like formation was observed on an inverted microscope (40×) and quantification of network total length was done using ImageJ software. Numeration of branching points, tubes and nodal structures was conducted using S.CORE system. Data are expressed as the mean ± SE from at least 3 independent experiments, each performed in triplicate. […] F. Total RNAs were purified from HUVECs transfected with non-silencing siRNA (siCtrl) or siRNA targeting TSP-1 (siTSP-1). The transcriptional level of TSP-1 was assessed by RT-PCR and normalized to β-actin. […] After 6 days incubation in the presence of 100 μM TAX2 or control peptide (Ctrl), images were taken with an inverted microscope (40×) and microvessel area was quantified using ImageJ software. […]
Figure 3 Anti-angiogenic properties of TAX2 are mediated by TSP-1 binding to CD36 A. Expression of CD36 in HUVECs was assessed by immunoblotting (left panel) and immunofluorescence staining (right panel, red). […] The presence of TSP-1 in immunocomplexes was quantified by densitometric analysis relative to immunoprecipitated CD36. […]

[2] = test system: CD36-containing complex / activated VEGFR2; assay: CD36 co-immunoprecipitation of activated VEGFR2; type: cell-based, human; conditions: HUVECs, 100 μM for 12 h, then 30 ng/mL VEGF 5 min
Protocol: Figure 3 Anti-angiogenic properties of TAX2 are mediated by TSP-1 binding to CD36 A. Expression of CD36 in HUVECs was assessed by immunoblotting (left panel) and immunofluorescence staining (right panel, red). Nuclei were counterstained with DAPI (blue). B. HUVECs were incubated with 100 μM cyclic TAX2 or in control conditions for 24 h. Then, CD36-containing complexes were co-immunoprecipitated from whole cell extracts (non-specific IgGs were used as a negative control for immunoprecipitation). Immunocomplexes were submitted to SDS-PAGE and immunoblotted (IB) by using specific antibodies for TSP-1 and CD36. The presence of TSP-1 in immunocomplexes was quantified by densitometric analysis relative to immunoprecipitated CD36. C. VEGFR2 phosphorylation induced by VEGF in the presence of TAX2. After overnight serum starvation, HUVECs were pre-treated with 100 μM TAX2 or control for 12 h, then incubated with 30 ng/mL VEGF for 5 min. […] Data are expressed as the mean ± SE (n = 3; *p < 0.05, ANOVA). […] Quantification of total tube-like network length was realized using ImageJ software E. Branching points F. and nodal structures G. were numbered using the S.CORE web-based system. Data are expressed as the mean ± SE (n = 3; *p < 0.05, ANOVA). […]

CEVSQLLKGDAC (disulfide) [TAX2, CD47-derived cyclic disulfide dodecapeptide …]
formation of branching points, capillary tubes and nodal structures ([1]; HUVECs on matrigel, 8 h, S.CORE): decreased
inhibition of pseudo-tube network formation (total network length) ([1]; HUVECs on matrigel, 8 h, at least 3 experiments in triplicate): 40%
effect on lumen formation under TSP-1 gene silencing ([1]; HUVECs transfected with siTSP-1, matrigel, 8 h): wholly abolished
prevention of capillary structure formation in presence of CD36 blocking antibody ([1]; HUVECs, 100 μM, 12 h, anti-CD36 blocking antibody, n = 3): wholly reversed
association of activated VEGFR2 to a CD36-containing complex [2]: association of activated VEGFR2 to a CD36-containing complex
